For data set [1] the following is noted: oral; cited from earlier work.
The next data set has as its system mouse. The conditions noted are these: cited from earlier work.
Data set [2] is described as follows: Comparative bioavailability: LC-MS determination of gabapentin in plasma after oral gabapentin or example 5. It counts as in vivo. The conditions noted are these: for dose dependence of bioavailability / absorption (in words): data of Table 1, 50 and 100 mg/kg p.o.; for AUC(0-t): po, t = 24 hrs, plasma. The method, then:
(§1) The prodrugs compounds of the present invention, i.e. the compounds of formula-I release in-vivo the compounds of formula III. Two of the representative compounds of the present invention i.e. compound of example 5 and compound 15, were tested to determine the comparative bioavailability of the drug and the prodrug. The following method was employed for the determination of bioavailability of the test compound of example 5.
Liquid Chromatography Mass Spectrometric Method for the Determination of Gabapentin from Example 5 in Plasma.
Mobile phase: Prepare 2 mM ammonium acetate solution in milliQ water and adjust the pH to 3.0 with formic acid. Mix above buffer solution and acetonitrile in the ratio (30:70 v/v) and filter.
Column: Hypurity C18, 50×2.1 mm, 5μ; Column oven temperature: 40° C.; Flow rate: 0.25 ml/min; Injection volume: 10 μl; Run time: 2.0 min.; Retention time: Example 5: 1.0 min.; Gabapentin: 1.0 min.; Carbamazepine: 1.0 min.;
Mass Parameters: Spray Voltage: 3500 V; Sheath Gas Pressure: 35 ml/min; Capillary Temperature: 380° C.; Mode: Positive; Aux gas pressure: 10 ml/min
For Gabapentin Linearity Range: 200 ng-19600 ng/ml in mobile phase.
For example 5: Linearity Range: 50 ng 5000 ng/ml in mobile phase.
A 100 μl plasma sample and 5 μl of internal standard was taken in a micro centrifuge tube. Vortex for 20-30 sec. The test samples were loaded in preconditioned HLB cartridges. The cartridge was washed with 1 ml Milli-Q water the sample was eluted with 500 μl of mobile phase. The sample was centrifuged at 15000 rpm for 5 minutes and the supernatant was collected for analysis.
(§2) Table 1 and Table 2 below provide Dose-concentration data for the representative compounds 5 and compound 15 of the invention, which are prodrugs of gabapentin and baclofen respectively.

For data set [3] the following is noted: cited from earlier work.
Data set [4] in a line: Comparative bioavailability: baclofen plasma levels after oral baclofen or example 15. In kind it is in vivo. The conditions noted are these: 20 ug/kg, baclofen dosed 20 mcg/kg p.o. The method, then: as §1, §2

Each structure is given as a SMILES string. Where two headings read alike, the source gives them in different places.

As for `NC[C@H]1CC[C@H](C(=O)O)CC1` [Tranexamic acid, trans-4-(aminomethyl)cyclohexanecarboxylic acid], the “orally administered dose absorbed” value in data set [1] is given as 35-40%.

For orientation: LD50 means the dose at which mortality reaches 50%. For the compound `O=C1CC2(CCCCC2)CN1` [corresponding lactam], the LD50 with mouse is listed as 300 mg/kg.

One may read the AUC(0-t) as exposure summed from dosing to a finite time, without extrapolation to infinity. Low readings indicate low exposure, high ones high exposure. For the compound `NCC1(CC(=O)O)CCCCC1` [Gabapentin, 1-(aminomethyl)cyclohexaneacetic acid], in data set [2], the “dose dependence of bioavailability / absorption (in words)” value is “non-linear saturable absorption, with lower bioavailability at the higher dose”. The figures for the AUC(0-t) in data set [2] (gabapentin dosed 50 mg/kg p.o.) and in data set [2] (gabapentin dosed 100 mg/kg p.o.) were 85000 ng·h/mL and 99000 ng·h/mL, respectively. Moreover, the LD50 in the data set with mouse is reported as more than 8000 mg/kg. The oral bioavailability entry is reported as “approximately 60%” in data set [3] (900 mg/day oral) and approximately 27% in data set [3] (1800 mg/day oral).

For orientation: Cmax means the highest concentration seen after dosing. `NCC(CC(=O)O)c1ccc(Cl)cc1` (centres unmarked) [Baclofen] returned a Cmax in data set [4] of 3600 ng/mL. This compound also had an AUC(0-t) in data set [4] (t = 24 hrs) of 15000 ng·h/mL.

Regarding `CCOC(=O)C(C)=NOC(=O)NCC1(CC(=O)O)CCCCC1` [Example 5, N-[(Ethyl oximinopropionate-2-yl)carbonyl]-1-aminomethyl cyclohexaneacetic acid], the “dose dependence of bioavailability / absorption (in words)” value in data set [2] is “dose-proportional bioavailability”.

(Values after patent US20100145057A1, “NOVEL PRODRUGS” (SUN PHARMA ADVANCED RESEARCH COMPANY LTD., priority 2007, published 2010).)
